Measured values published in ChEMBL document CHEMBL1201862, “PubChem BioAssay data set” (2004).
Calls of active or inactive are those of the source.

Columns and labels:
[1] = biological target: T1, Kappa-type opioid receptor (Homo sapiens, UniProt P41145); experiment: SAR analysis of Antagonists of the Kappa Opioid Receptor (KOR) using an Image-Based Assay - Set 3. [Related pubchem assays (depositor defined):AID1777, AID1785]; assay type: functional
[2] = biological target: T1, Kappa-type opioid receptor; experiment: SAR analysis of small molecule antagonists of the kappa opioid receptor via a luminescent beta-arrestin assay - Set 3. [Related pubchem assays (depositor defined):AID1777, AID1778, AID1785, AID1786, AID1966, AID2133, AID2136, AID2285, AID2495]; assay type: functional
[3] = biological target: Delta-type opioid receptor (Homo sapiens, UniProt P41143); experiment: SAR Analysis of Antagonists of the DOR Receptor using an Image-Based Assay - Set 3. [Related pubchem assays (depositor defined):AID1777, AID1785]; assay type: functional;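 note: U2OS cells expressing DOR1 and beta-arrestin GFP stimulated with 100 nM SNC80; imaging of GFP-tagged beta-arrestin moving into spots after receptor activation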
Chain of Delta-type opioid receptor (P41143 whole entry): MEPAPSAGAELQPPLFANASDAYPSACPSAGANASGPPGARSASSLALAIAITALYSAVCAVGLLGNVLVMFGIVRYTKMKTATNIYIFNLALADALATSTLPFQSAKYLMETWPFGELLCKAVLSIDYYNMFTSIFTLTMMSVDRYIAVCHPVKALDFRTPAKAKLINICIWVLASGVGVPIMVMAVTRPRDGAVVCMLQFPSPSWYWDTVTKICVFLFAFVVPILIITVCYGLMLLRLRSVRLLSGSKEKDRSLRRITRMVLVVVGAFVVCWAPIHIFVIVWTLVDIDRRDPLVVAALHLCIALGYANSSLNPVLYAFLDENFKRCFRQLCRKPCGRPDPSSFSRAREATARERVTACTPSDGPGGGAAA

Mu-type opioid receptor = Mu-type opioid receptor (Homo sapiens, UniProt P35372); experiment: SAR Analysis of Antagonists of the MOR Receptor using an Image-Based Assay - Set 3. [Related pubchem assays (depositor defined):AID1777, AID1785, AID1786, AID1966, AID2133, AID2136, AID2284, AID2285, AID2420]; assay type: functional
Chain of Mu-type opioid receptor (P35372 whole entry): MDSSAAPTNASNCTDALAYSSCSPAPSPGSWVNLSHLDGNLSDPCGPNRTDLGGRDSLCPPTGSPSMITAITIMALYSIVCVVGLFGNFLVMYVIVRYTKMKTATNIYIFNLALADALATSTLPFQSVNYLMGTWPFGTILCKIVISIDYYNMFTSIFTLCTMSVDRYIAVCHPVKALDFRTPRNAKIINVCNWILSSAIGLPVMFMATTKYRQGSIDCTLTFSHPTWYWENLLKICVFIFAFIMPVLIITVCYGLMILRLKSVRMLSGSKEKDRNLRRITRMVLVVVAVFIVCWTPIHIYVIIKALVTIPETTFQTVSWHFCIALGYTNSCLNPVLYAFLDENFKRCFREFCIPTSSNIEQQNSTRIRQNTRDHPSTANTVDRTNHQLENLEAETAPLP

Coagulation factor XII = biological target: T2, Coagulation factor XII (Homo sapiens, UniProt P00748); experiment: Factor XIIa Dose Response Confirmation from Single Well HTS. [Related pubchem assays (depositor defined):AID701]; assay type: functional
T2 sequence (P00748 whole entry): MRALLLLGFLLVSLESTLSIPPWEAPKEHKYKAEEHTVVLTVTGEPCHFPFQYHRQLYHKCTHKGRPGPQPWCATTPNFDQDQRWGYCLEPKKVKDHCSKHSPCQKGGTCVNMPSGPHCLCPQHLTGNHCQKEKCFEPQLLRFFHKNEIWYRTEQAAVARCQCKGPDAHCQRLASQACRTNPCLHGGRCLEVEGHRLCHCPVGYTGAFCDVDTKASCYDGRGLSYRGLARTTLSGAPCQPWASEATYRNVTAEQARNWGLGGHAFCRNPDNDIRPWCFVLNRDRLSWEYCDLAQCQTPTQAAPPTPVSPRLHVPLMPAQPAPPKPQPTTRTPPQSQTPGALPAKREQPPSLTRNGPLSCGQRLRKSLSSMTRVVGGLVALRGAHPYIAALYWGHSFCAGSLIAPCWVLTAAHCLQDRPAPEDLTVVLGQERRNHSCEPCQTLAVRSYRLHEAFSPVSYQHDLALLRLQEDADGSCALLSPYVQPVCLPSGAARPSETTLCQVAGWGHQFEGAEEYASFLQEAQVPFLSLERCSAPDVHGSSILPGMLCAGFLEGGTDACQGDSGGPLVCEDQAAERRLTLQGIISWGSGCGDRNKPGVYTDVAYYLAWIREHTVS

Integrin alpha-4 = Integrin alpha-4 (Homo sapiens, UniProt P13612); experiment: VLA-4 integrin allosteric ligands, SAR follow-up, cell-based, LIBS antibody binding, flow cytometry (AID 488791); assay type: functional
Chain of Integrin alpha-4 (P13612 whole entry): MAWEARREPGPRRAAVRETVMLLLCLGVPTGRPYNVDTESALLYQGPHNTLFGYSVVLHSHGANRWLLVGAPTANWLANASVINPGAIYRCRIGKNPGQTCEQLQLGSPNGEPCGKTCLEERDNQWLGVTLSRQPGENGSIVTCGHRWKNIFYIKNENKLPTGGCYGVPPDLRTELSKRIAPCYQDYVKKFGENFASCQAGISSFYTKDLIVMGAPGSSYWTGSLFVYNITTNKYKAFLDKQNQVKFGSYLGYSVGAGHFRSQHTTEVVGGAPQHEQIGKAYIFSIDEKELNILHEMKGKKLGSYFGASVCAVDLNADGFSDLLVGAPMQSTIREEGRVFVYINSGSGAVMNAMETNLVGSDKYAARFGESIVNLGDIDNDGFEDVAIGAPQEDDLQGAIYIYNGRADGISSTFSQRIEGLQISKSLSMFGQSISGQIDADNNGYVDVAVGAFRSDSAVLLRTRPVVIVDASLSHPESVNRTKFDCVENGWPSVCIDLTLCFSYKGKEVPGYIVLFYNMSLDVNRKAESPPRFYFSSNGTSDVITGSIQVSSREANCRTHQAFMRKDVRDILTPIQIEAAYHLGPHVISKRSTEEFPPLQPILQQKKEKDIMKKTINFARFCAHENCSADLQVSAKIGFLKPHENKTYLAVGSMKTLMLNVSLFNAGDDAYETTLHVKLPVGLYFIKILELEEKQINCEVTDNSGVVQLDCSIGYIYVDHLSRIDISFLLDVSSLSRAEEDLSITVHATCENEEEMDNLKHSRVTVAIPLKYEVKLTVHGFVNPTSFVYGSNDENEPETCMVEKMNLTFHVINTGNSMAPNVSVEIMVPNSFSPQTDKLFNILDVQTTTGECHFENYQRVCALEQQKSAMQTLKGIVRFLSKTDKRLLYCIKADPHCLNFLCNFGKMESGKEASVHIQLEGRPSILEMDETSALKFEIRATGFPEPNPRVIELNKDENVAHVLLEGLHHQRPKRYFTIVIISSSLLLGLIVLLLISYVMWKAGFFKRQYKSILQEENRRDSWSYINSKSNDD

[4] = biological target: T3, Replicative DNA helicase DnaB (Mycobacterium tuberculosis, UniProt P9WMR3); experiment: DnaB intein splicing inhibitors, dose response, biochemical, cell-free fluorescence (AID 449749); assay type: functional
T3 sequence (P9WMR3 whole entry): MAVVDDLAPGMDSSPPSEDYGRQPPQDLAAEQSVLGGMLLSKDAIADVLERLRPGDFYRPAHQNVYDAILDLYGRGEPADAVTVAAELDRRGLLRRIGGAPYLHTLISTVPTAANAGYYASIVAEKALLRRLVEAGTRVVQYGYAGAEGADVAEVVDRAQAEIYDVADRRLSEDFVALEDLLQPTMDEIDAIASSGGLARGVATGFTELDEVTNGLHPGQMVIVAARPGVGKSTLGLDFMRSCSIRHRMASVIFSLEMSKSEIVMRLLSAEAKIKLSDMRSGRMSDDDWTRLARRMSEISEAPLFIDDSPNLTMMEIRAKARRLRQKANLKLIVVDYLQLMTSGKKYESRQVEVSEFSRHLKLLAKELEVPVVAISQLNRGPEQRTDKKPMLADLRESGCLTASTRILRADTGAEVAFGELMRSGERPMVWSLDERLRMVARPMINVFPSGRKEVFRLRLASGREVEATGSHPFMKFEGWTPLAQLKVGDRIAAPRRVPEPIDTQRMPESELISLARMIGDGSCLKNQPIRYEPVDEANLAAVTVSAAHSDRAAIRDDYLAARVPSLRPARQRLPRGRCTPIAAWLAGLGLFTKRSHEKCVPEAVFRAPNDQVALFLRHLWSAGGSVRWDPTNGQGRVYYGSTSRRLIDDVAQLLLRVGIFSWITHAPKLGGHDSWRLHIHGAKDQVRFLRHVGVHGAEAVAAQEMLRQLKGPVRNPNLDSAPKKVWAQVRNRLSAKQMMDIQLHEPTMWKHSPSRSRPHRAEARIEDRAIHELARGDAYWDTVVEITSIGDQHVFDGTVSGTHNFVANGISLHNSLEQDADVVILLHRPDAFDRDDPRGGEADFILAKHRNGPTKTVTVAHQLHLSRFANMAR

Protein RecA = biological target: T4, Protein RecA (Mycobacterium tuberculosis, UniProt P9WHJ3); experiment: Fluorescence Cell-Free Homogeneous Dose Retest to Identify Inhibitors of RecA-Intein Splicing Activity. [Related pubchem assays (depositor defined):AID2097, AID2223, AID489010, AID492950]; assay type: functional
T4 sequence (P9WHJ3 whole entry): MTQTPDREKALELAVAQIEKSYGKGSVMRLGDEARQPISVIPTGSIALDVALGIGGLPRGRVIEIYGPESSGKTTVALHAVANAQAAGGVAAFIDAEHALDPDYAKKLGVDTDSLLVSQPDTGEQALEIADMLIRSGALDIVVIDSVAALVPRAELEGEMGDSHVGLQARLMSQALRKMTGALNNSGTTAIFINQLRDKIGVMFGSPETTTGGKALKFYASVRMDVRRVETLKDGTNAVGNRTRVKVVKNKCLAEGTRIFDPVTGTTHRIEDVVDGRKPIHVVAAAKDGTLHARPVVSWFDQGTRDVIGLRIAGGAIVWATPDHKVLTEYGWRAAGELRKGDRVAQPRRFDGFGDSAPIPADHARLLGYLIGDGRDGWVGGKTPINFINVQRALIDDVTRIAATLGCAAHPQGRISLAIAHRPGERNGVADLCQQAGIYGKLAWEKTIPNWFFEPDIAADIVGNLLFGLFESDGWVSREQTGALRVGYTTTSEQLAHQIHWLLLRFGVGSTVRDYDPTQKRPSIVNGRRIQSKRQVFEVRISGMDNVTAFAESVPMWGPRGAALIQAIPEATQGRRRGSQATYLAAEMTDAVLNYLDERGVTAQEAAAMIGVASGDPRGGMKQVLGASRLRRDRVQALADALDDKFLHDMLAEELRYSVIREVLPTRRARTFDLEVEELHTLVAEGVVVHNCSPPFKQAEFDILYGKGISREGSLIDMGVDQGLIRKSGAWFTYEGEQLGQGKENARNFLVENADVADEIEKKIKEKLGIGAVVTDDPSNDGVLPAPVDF

[5] = cytotoxicity toward NIH3T3 fibroblasts, dose response, counter-screen, cell-based, ATP luminescence, mouse fibroblasts (AID 2010); assay type: functional;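 note: cells exposed to compound for about 90 hours before reading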
[6] = Luminescent dose response cell-based high throughput screening assay for inhibitors of the Janus kinase 2 mutant JAK2V617F. [Related pubchem assays: 1446 (Primary screen.), 1521 (Confirmation assay.), 1486 (Counter screen.)]; assay type: functional
[7] = inhibitors of intracellular T. cruzi replication, confirmation, NIH3T3 host cells, beta-gal luminescence (AID 2044); assay type: functional, cell-based;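 note: intracellular parasites grown in NIH/3T3 mouse fibroblasts as host cells; luminescent beta-galactosidase reporter signal from transgenic T. cruzi replicating inside host cells; inhibitors lower the luminescence signal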
[8] = cytotoxicity in KRAS-transformed pancreatic duct cells, primary screen, cell-based, fluorescence, HTS (AID 431); assay type: functional; details: Homo sapiens;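 note: cell line used: HPDE-C7K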
[9] = cytotoxicity in HPDE-C7 cells, cell-based, fluorescence, HTS (AID 430); assay type: functional; details: Homo sapiens
[10] = biological target: DNA damage-inducible transcript 3 protein (Mus musculus, UniProt P35639); assay type: functional, Cricetulus griseus
Chain of DNA damage-inducible transcript 3 protein (P35639 whole entry): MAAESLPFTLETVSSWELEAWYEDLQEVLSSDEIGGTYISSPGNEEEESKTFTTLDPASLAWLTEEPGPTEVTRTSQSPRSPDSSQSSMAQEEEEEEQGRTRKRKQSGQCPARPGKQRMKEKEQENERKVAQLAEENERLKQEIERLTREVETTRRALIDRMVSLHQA

T1 sequence (P41145 whole entry): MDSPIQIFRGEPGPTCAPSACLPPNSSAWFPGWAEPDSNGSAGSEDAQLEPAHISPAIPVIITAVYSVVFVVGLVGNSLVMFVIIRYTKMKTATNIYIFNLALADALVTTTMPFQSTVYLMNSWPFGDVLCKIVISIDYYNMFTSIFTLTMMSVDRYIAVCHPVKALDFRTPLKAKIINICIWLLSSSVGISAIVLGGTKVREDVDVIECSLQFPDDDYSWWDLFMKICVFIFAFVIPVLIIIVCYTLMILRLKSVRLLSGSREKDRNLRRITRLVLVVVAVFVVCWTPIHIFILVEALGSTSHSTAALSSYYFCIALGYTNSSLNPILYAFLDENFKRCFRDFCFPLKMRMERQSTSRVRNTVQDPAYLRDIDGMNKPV

CCN(CCNC(=O)c1ccc(CNS(=O)(=O)c2ccc(Br)cc2)cc1)Cc1ccccc1
IC50 [1]: 4.82 µM (active) | IC50 [2]: 19.4 µM (inactive) | IC50 [3]: > 32 µM (inactive) | IC50 (Mu-type opioid receptor): 8.46 µM (active)

CCc1ccc(C(=O)COC(=O)c2cccs2)cc1
IC50 (Coagulation factor XII): > 50 µM (inactive)

O=C1NC(=O)C2(N1)c1ccccc1-c1ccccc12
EC50 (Integrin alpha-4): 334 nM (active)

CS(=O)(=O)c1nc(-c2ccco2)cc(C(F)(F)F)n1
AC50 [4]: > 380 µM (inactive) | EC50 (Protein RecA): > 380 µM (inactive) | EC50 [5]: 3.73 µM (active) | IC50 [6]: 644 nM (active) | EC50 [7]: 1.61 µM (active) | EC50 [8]: 5.96 µM (active) | EC50 [9]: 6.49 µM (active) | Absolute IC50 (CHOP) [10]: 10 µM
